{"source": "patent US20170000784A1", "about": "“Autophagy Inhibitors” (priority 2013, published 2017)", "type_in_all_cases": "cell-based", "key": {"[1]": {"test_system": "UACC-1308 melanoma cell line", "experiment": "Cell viability (IC50) screen, CellTiter Glo, UACC-1308", "conditions": "Homo sapiens", "procedure": "(§1) U2OS cells were seeded at 500 cells per well in 5A McCoy's with 10% FBS in 96-well clear bottom, black-walled tissue culture plates. All melanoma cell lines (A375, UACC-91, UACC-257, UACC-502, UACC-903, UACC-1308, UACC-1940, UACC-2534, and UACC-3291) were seeded at 5,000 cells per well in RPMI 1640 with 10% FBS in 96-well clear bottom, black-walled tissue culture plates. After 24 hour incubation, cells were treated with VATG compounds in triplicate with a 10-point half log dose response from […] for 24 and 48 hours. Medium was removed and 2× CellTiter Glo (Promega, G7571) reagent mixed 1:1 with Opti-MEM (Invitrogen, 31985062) was added at 100 μL per well and incubated at room temperature for 15 minutes while rocking. 75 μL per well was moved to a white-walled 96-well plate and luminescence quantified using the 96 LUM program on an EnVision plate reader (PerkinElmer) and exported for analysis. All triplicate data points were averaged and luminescent readings for each treatment were normalized to vehicle control for change in viability. Dose response curves were input into SigmaPlot for IC50 calculations (Systat Software Inc)."}, "[2]": {"test_system": "nine melanoma cell lines (A375, UACC-91, UACC-257, UACC-502, UACC-903, UACC-1308, UACC-1940, UACC-2534, UACC-3291)", "experiment": "Cell viability (IC50) screen, panel of nine melanoma cell lines", "conditions": "Homo sapiens, read-out: IC50 values, range over the melanoma cell lines", "procedure": "as §1\nNext, the sensitivity of each melanoma cell line to CQ, QN, Example 7, and Example 27 was assessed."}, "U2OS cells": {"test_system": "U2OS cells", "experiment": "Transmission electron microscopy of lysosomal vesicles", "conditions": "3 μM for 3 hours, FIG. 12B", "procedure": "U2OS cells were seeded in 10 cm plates in 5A McCoy's with 10% FBS at 1×10^6 cells per plate. After 24 hours incubation, cells were treated with DMSO (vehicle control), CQ (3 or 100 μM), quinicrine (3 μM), VATG-027 (3 μM), or VATG-032 (3 μM) for three hours. Following, cells were trypsinized, washed, pelleted, and resuspended in 2% glutaraldehyde fixative (Sigma, G5882). Cell pellets were embedded in 2% agarose, post-fixed in osmium tetroxide, and dehydrated with an acetone series. Cell samples were infiltrated and embedded in Poly/Bed 812 resin and polymerized at 60° C. for 24 hours. Ultrathin sections of 70 nm were generated with a Power Tome XL (Boeckeler Instruments) and placed on copper grids. Sections were examined using a JEOL 100Cx Transmission Electron Microscope at 100 kV. Lysosomal structures were identified by a single membrane structure lacking cytosolic components (FIG. 12). Transmission electron microscopy services were performed by Michigan State University Center for Advanced Microscopy (East Lansing, Mich.).\nTo test the theory, lysosomal turnover was first evaluated by visualizing lysosomes using transmission electron microscopy (TEM). U2OS cells were initially treated with a CQ concentration above the effective dose (100 μM) for 3 hours as a positive control, and were then subsequently fixed and imaged. […] Once this phenotype was established, cells were treated with a lower concentration (3 μM) of CQ to compare each compound at the same concentration."}, "[3]": {"test_system": "lysosomal protease cathepsin B in U2OS cells", "experiment": "Immunoblot of active cathepsin B", "conditions": "3 μM and 30 μM for 6 hours; effects stated at 30 μM (CQ: at either dose)", "procedure": "For Western blotting, U2OS cells were seeded in 10 cm plates in 5A McCoy's with 10% FBS at 1×10^6 cells per plate. All melanoma lines were seeded in 10 cm plates in RPMI 1640 with 10% FBS at 1×10^6 cells per plate. After 24 hours, cells were treated with CQ, QN, Example 27, or Example 7 in a dose response of 0.3 μM, 1 μM, 3 μM, 10 μM, and 30 μM for three hours. A375 were treated with PLX-4032 (Selleck Chemicals, S1267) at 10 nM, 100 nM, and 1 μM for three hours with and without CQ, QN, Example 7, and Example 27 at 3 μM and 30 μM. After treatment, cells were lysed [10 mM KPO4, 1 mM EDTA, 10 mM MgCl2, 5 mM EGTA, 50 mM bis-glycerophosphate, 0.5% NP40, 0.1% Brij35, 0.1% sodium deoxycholate, 1 mM NaVO4, 5 mM NaF, 2 mM DTT, and complete protease inhibitors (Sigma, P8340-5 mL)] and 50 μg of protein was resolved by SDS-PAGE. Proteins were transferred to PVDF membranes and probed with primary antibodies [LC3 (Sigma, L7543-200UL), anti-α-tubulin (Sigma, T6199), cathepsin B (Santa Cruz, sc-13985)] for 16 hours at 4° C. followed by a secondary antibody [HRP-linked rabbit or mouse IgG (GE Healthcare, NA934 or NA931) or Odyssey IRDye 680CW Goat anti-rabbit IgG (LI-COR, 926-32221) or IRDye 800CW Goat anti-mouse IgG (LI-COR, 926-32210)] for 1 hour at room temperature. Proteins were detected with enhanced chemiluminescence or using the Odyssey machine and quantified (FIGS. 12, 15, 16, 7 and 11).\nDeacidification of lysosomes would be expected to not only prevent the maturation and turnover of the lysosomes from early to late, but also affect the functionality of lysosomal enzymes and consequently the turnover of lysosomal constituents. To determine if lysosomal activity was inhibited, lysosomal protease cathepsin B activity was measured by immunoblotting (FIG. 12C). Lysates were harvested from cells and treated with CQ, QN, Example 7, and Example 27 at both 3 μM and 30 μM for 6 hours."}, "[4]": {"conditions": "UACC-1308 cell viability, CellTiter Glo, read-out: IC50"}, "[5]": {"conditions": "cell viability, nine melanoma cell lines"}}, "note": "Read-outs that look alike come from different tables or passages of the source.", "data": [{"smiles": "CCN(CC)CCCC(C)Nc1c2ccc(Cl)cc2nc2ccc(OC)cc12", "note": "(centres unmarked) [Quinacrine, quinacrine, reference compound]", "values": [{"measurement": "IC50", "setting": "[1]; [4]", "value": 3.9, "unit": "µM"}, {"measurement": "IC50", "setting": "[2]; [5]", "value": "1.9 to 3.9", "unit": "µM"}, {"measurement": "size and number of electron-lucent and electron-dense vesicles (TEM)", "setting": "U2OS cells", "value": "increase in both the size and number"}, {"measurement": "active cathepsin B", "setting": "[3]", "value": "nearly complete loss"}]}, {"smiles": "COc1ccc2nc3cc(Cl)ccc3c(NCCCCN3CCN(C)CC3)c2c1", "note": "[Example 7, 6-Chloro-2-methoxy-N-(4-(4-methylpiperazin-1-yl)butyl)acridin-9-amine]", "values": [{"measurement": "IC50", "setting": "[1]; [4]", "value": 2.1, "unit": "µM"}, {"measurement": "IC50", "setting": "[2]; [5]", "value": "0.4 to 2.7", "unit": "µM"}, {"measurement": "electron-opaque structures, consistent with lipid droplets (TEM)", "setting": "U2OS cells", "value": "appearance of several electron-opaque structures"}, {"measurement": "size and number of electron-lucent and electron-dense vesicles (TEM)", "setting": "U2OS cells", "value": "increase in both the size and number"}, {"measurement": "active cathepsin B", "setting": "[3]", "value": "nearly complete loss"}]}, {"smiles": "CN1CCN(CCNc2c3c(nc4cc(Cl)ccc24)CCCC3)CC1", "note": "[Example 27, 6-Chloro-N-(2-(4-methylpiperazin-1-yl)ethyl)-1,2,3,4-tetrahydroacridin-9-amine]", "values": [{"measurement": "IC50", "setting": "[1]", "value": 14.9, "unit": "µM"}, {"measurement": "IC50", "setting": "[2]", "value": "15 to 42", "unit": "µM"}, {"measurement": "electron-opaque structures, consistent with lipid droplets (TEM)", "setting": "U2OS cells", "value": "appearance of several electron-opaque structures"}, {"measurement": "size and number of electron-lucent and electron-dense vesicles (TEM)", "setting": "U2OS cells", "value": "increase in both the size and number"}, {"measurement": "active cathepsin B", "setting": "[3]", "value": "significant decrease"}]}]}
